# Measured values as given in article PMC12186255, “Discovery and Characterization of Small Molecule Inhibitors Targeting Exonuclease 1 for Homologous Recombination-Deficient Cancer Therapy” (ACS Chemical Biology, 2025).
# “Also recorded” adds a separate entry of the source.
# Tests used:
# CCRF-CEM = assay: Cell line drug profiling, CellTiter Glo; format: cell-based; settings: Homo sapiens, Leukemia, 72 h
# Experimental: (§1) We tested the cytotoxicity of representative compounds from the seven EXO1i scaffolds against a subset of the NCI-60 cell line panel along with three additional pancreatic cell lines (FG, AsPC1, and CaPan2). In general, cells were seeded in 384-well tissue culture-treated plates overnight and treated with various concentrations of each hit compound (a serial 3-fold dilution from 50 μM for all tested hits). Each concentration was performed in duplicate. Cell viability was then measured by CellTiter Glo (Promega) after 72 h of treatment.
# AsPC1 = assay: Cell line drug profiling, CellTiter Glo; format: cell-based; settings: Homo sapiens; AsPC1, Pancreatic, 72 h
# Experimental: as §1
# ACHN = assay: Cell line drug profiling, CellTiter Glo; format: cell-based; settings: Homo sapiens, Kidney, 72 h
# Experimental: as §1
# UO-31 = assay: Cell line drug profiling, CellTiter Glo; format: cell-based; settings: Homo sapiens; UO-31, Kidney, 72 h
# Experimental: as §1
# SK-MEL-28 = assay: Cell line drug profiling, CellTiter Glo; format: cell-based; settings: Homo sapiens; SK-MEL-28, Melanoma, 72 h
# Experimental: as §1
# OVCAR-3 = assay: Cell line drug profiling, CellTiter Glo; format: cell-based; settings: Homo sapiens; OVCAR-3, Ovarian, 72 h
# Experimental: as §1
# BT549 = assay: Cell line drug profiling, CellTiter Glo; format: cell-based; settings: Homo sapiens, BT-549; BT549, Breast, 72 h
# Experimental: as §1
# MCF7 (B3) = assay: Cell line drug profiling, CellTiter Glo; format: cell-based; settings: Homo sapiens, Breast, 72 h
# Experimental: as §1
# FG = assay: Cell line drug profiling, CellTiter Glo; format: cell-based; settings: Homo sapiens, Pancreatic, 72 h
# Experimental: as §1
# HL-60(TB) = assay: Cell line drug profiling, CellTiter Glo; format: cell-based; settings: Homo sapiens, Leukemia, 72 h
# Experimental: as §1
# MCF7 = assay: Cell line drug profiling, CellTiter Glo; format: cell-based; settings: Homo sapiens; MCF7, Breast, 72 h
# Experimental: as §1
# SF-268 = assay: Cell line drug profiling, CellTiter Glo; format: cell-based; settings: Homo sapiens; SF-268, Central Nervous System, 72 h
# Experimental: as §1
# MDA-MB-231 = assay: Cell line drug profiling, CellTiter Glo; format: cell-based; settings: Homo sapiens; MDA-MB-231, Breast, 72 h
# Experimental: as §1
# CaPan2 = assay: Cell line drug profiling, CellTiter Glo; format: cell-based; settings: Homo sapiens, Capan-2; CaPan2, Pancreatic, 72 h
# Experimental: as §1
# HS 578T = assay: Cell line drug profiling, CellTiter Glo; format: cell-based; settings: Homo sapiens, Breast, 72 h
# Experimental: as §1
# FEN1 = target: T1, FEN1 (Homo sapiens, UniProt P39748); assay: Analogous FRET-based counter screen with purified FEN1; format: biochemical; settings: FRET-based assay, maximum inhibitor concentration 100 μM
# T1 construct: made in house
# T1 sequence (P39748 whole entry): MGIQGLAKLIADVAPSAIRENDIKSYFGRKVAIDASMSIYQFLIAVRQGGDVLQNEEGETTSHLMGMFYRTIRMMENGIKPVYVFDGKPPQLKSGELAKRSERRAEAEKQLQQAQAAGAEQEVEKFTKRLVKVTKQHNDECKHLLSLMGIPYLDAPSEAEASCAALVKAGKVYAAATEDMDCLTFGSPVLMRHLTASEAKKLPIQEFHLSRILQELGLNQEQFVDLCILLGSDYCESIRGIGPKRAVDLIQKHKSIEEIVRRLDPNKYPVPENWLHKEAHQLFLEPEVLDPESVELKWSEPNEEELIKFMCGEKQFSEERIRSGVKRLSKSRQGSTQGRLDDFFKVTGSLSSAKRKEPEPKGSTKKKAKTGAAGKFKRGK
# Experimental: Data were normalized by subtracting the relative fluorescence unit (RFU) of the blank sample from that of each EXO1-containing reaction. The relative activity of individual compounds was subsequently calculated by setting the corrected RFU of EXO1 with DMSO as 100% and comparing the corrected RFU for each condition to the DMSO value. Each assay was performed by sequentially adding experimental compounds, the EXO1 enzyme, and the DNA substrate to minimize starting differences. […] Following IC50 screening, an analogous FRET-based assay was performed using purified FEN1 to assess the EXO1 specificity of each compound.
# For subsequent hit confirmation, 84 compounds from the primary screen were picked from our internal stock and subjected to a dose-dependent response assay starting at 100 μM with 3-fold serial dilution. To analyze the data from the dose-dependent response assay, IC50 values for each hit were calculated through nonlinear regression analysis using GraphPad Prism 10 (GraphPad Software, Inc.). […] Subsequently, a counter screen was performed to eliminate potential false-positive hits. To accomplish this, we established an analogous FRET assay using the purified FEN1 enzyme in place of EXO1.
# EXO1 K85A = target: T2, EXO1 K85A (Homo sapiens, UniProt Q9UQ84, K85A); assay: In vitro exonuclease activity of mutant with inhibitors; format: biochemical; settings: EXO1 25 nM, DNA substrate 250 nM; C200 0-5 μM, F684 10-40 μM
# T2 construct: The N-terminal domain of human EXO1 (hEXO1) (residues 1–345) was cloned into the pET28b vector; made in house; host or cells: E. coli BL21(DE3) and Rosetta 2(DE3)
# T2 sequence (Q9UQ84 1-345 K85A): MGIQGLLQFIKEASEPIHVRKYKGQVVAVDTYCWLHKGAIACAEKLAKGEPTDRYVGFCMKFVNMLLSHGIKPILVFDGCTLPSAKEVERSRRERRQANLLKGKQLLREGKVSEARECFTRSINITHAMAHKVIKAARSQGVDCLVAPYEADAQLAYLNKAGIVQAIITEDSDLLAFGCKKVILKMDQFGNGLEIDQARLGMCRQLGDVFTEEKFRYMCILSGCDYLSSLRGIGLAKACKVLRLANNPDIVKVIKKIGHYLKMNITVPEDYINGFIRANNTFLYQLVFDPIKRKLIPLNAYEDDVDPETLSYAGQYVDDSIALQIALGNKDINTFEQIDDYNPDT
# Experimental: Simultaneously, we tested the effect of each point mutation on the in vitro exonuclease activity. Most mutations in site 1 result in some loss of enzymatic activity compared to WT EXO1 (Figure S13; WT:Figure S13a), particularly K85A and D225A (Figure S13b,f). […] However, at concentrations of 20 and 40 μM, the mutants (K85A and R92A) behaved more like WT (Figure b).
# In both panels a and b, DMSO without inhibitors was used as a control, and its relative binding activity was set equal to 1.0. The EXO1 enzyme concentration was 25 nM, and the DNA substrate concentration was 250 nM. The values shown are the mean ± S.D. of three independent experiments.
# The N-terminal domain of human EXO1 (hEXO1) (residues 1–345) was cloned into the pET28b vector. The following mutations were introduced via site-directed mutagenesis based on the findings of molecular docking analysis: K85A, E89A, R92A, I125A, D225A, K292A, and K294A (oligonucleotide primers listed in Table S1) following the established protocol.
# [1] = system: subset of the NCI-60 cell line panel plus FG, AsPC1, CaPan2 (31 cell lines); assay: Tumor cell line drug profiling, CellTiter Glo, whole panel; format: cell-based; settings: Homo sapiens, 72 h, read-out: IC50 values across the cell line panel
# Experimental: as §1
Compound,IC50 (CCRF-CEM) [µM],IC50 (AsPC1) [µM],IC50 (ACHN) [µM],IC50 (UO-31) [µM],IC50 (SK-MEL-28) [µM],IC50 (OVCAR-3) [µM],IC50 (BT549) [µM],IC50 (MCF7 (B3)) [µM],IC50 (FG) [µM],IC50 (HL-60(TB)) [µM],IC50 (MCF7) [µM],IC50 (SF-268) [µM],IC50 (MDA-MB-231) [µM],IC50 (CaPan2) [µM],IC50 (HS 578T) [µM],IC50 (FEN1) [µM],inhibitory activity against EXO1 K85A mutant vs WT (EXO1 K85A),IC50 [1] [µM]
COC(=O)c1nc(-c2ccc(OC)cc2)nc(O)c1O [C200],27.4,> 50,> 50,> 50,> 50,> 50,> 50,> 50,> 50,> 50,> 50,> 50,> 50,> 50,> 50,> 100,did not have a significant,> 50
Cc1cccc(N2CCN(c3ccc(NS(=O)(=O)c4ccccc4)c(C(=O)O)c3)CC2)c1C [F684],14.6,> 50,28.9,20.6,38,10.9,12,23.6,27.5,20.1,20.1,38.6,28.6,48.1,18.2,> 100,partially lost its inhibitory effects; also recorded: abolished,15 to 25
